Reference: ChEMBL document CHEMBL1133035, “Cysteine chloromethyl and diazomethyl ketone derivatives with potent anti-leukemic activity” (Bioorg Med Chem Lett, 2000)
Where a SMILES comes first, the peptide text is derived from it. The star is where a group is joined. Farnesyl = CC(C)=CCC/C(C)=C/CC/C(C)=C/C*; Boc = CC(C)(C)OC(=O)*; CHN2 = [N-]=[N+]=C*; CH2Cl = ClC*

Experiments:
MOLT-3 = test: Anti-leukemic activity against Molt-3 (T-lineage ALL) human acute lymphoblastic leukemia (ALL) cell line; format: functional, cell-based
NALM-6 = test: Anti-leukemic activity against Nalm-6 (B-lineage ALL) human acute lymphoblastic leukemia (ALL) cell line; format: functional, cell-based

CC(=O)N[C@@H](CSCC=C(C)C)C(=O)CCl
IC50 (MOLT-3): 7.9 µM
IC50 (NALM-6): 12.6 µM

CC(=O)N[C@@H](CSC/C=C(\C)CCC=C(C)C)C(=O)C=[N+]=[N-]
IC50 (MOLT-3): > 100 µM
IC50 (NALM-6): > 100 µM

CC(=O)N[C@@H](CSC/C=C(\C)CCC=C(C)C)C(=O)CCl
IC50 (MOLT-3): > 100 µM
IC50 (NALM-6): > 100 µM

CC(C)=CCC/C(C)=C/CC/C(C)=C/CSCCC(=O)CCl
IC50 (MOLT-3): 35.5 µM
IC50 (NALM-6): 40.7 µM

CCCCCCCCCCCCSC[C@H](NC(=O)OC(C)(C)C)C(=O)CCl
IC50 (MOLT-3): 15.5 µM
IC50 (NALM-6): 15.1 µM

CC(=O)N[C@@H](CSC/C=C(\C)CC/C=C(\C)CCC=C(C)C)C(=O)C=[N+]=[N-]
IC50 (MOLT-3): 32.2 µM
IC50 (NALM-6): 30.3 µM

CC(C)=CCC/C(C)=C/CC/C(C)=C/CSC[C@H](NC(=O)OC(C)(C)C)C(=O)C=[N+]=[N-]
IC50 (MOLT-3): 50.1 µM
IC50 (NALM-6): 49.8 µM

CCCCCCCCCCCCSC[C@H](NC(C)=O)C(=O)CCl
IC50 (MOLT-3): 2.3 µM
IC50 (NALM-6): 2 µM

CCCCCCCCCCCCSC[C@H](NC(C)=O)C(=O)C=[N+]=[N-]
IC50 (MOLT-3): 22.9 µM
IC50 (NALM-6): 15.4 µM

CC(=O)N[C@@H](CSCC=C(C)C)C(=O)C=[N+]=[N-]
IC50 (MOLT-3): > 100 µM
IC50 (NALM-6): > 100 µM

CC(C)=CCC/C(C)=C/CC/C(C)=C/CSC[C@H](NC(=O)OC(C)(C)C)C(=O)CCl
IC50 (MOLT-3): 7.7 µM
IC50 (NALM-6): 10.7 µM

CCCCCCCCCCCCSC[C@H](N)C(=O)CCl
IC50 (MOLT-3): 12.5 µM
IC50 (NALM-6): 17.7 µM

CC(=O)N[C@@H](CSC/C=C(\C)CC/C=C(\C)CCC=C(C)C)C(=O)CCl
IC50 (MOLT-3): 1.4 µM
IC50 (NALM-6): 3 µM

CC(C)=CCC/C(C)=C/CC/C(C)=C/CSC[C@H](NC(=O)CNC(=O)OC(C)(C)C)C(=O)C=[N+]=[N-] (Boc-Gly-Cys(Farnesyl)-CHN2)
IC50 (MOLT-3): 84.5 µM
IC50 (NALM-6): 51.3 µM

CC(C)=CCC/C(C)=C/CC/C(C)=C/CSCC(=O)CCl
IC50 (MOLT-3): > 100 µM
IC50 (NALM-6): 84.3 µM

CC(C)=CCC/C(C)=C/CC/C(C)=C/CSC[C@H](NC(=O)CNC(=O)OC(C)(C)C)C(=O)CCl (Boc-Gly-Cys(Farnesyl)-CH2Cl)
IC50 (MOLT-3): 17.5 µM
IC50 (NALM-6): 12.9 µM
